According to US8758782B2, “Excipient preservatives and pharmaceutical compositions comprised thereof” (Galderma Research & Development, priority 2007, dated 2014):

Columns and labels:
[1] = system: Staphylococcus aureus, reference ATCC 6538; experiment: Preservative Efficacy Test (PET), Staphylococcus aureus; type: cell-based; parameters: key to Gram+ bacterium, Staphylococcus aureus: −: No European pharmacopoeia criterion or USP criterion is met; +: for the coli: the USP criteria are met; ++: the European pharmacopoeia criteria A are met; conditions: additive in standard emulsion
From the text: (§1) A particular problem that must be solved by the invention is that of effectively protecting a pharmaceutical topical composition while at the same time meeting the criteria required by the European and U.S. pharmacopoeias. This is because, since the purpose of the pharmaceutical composition is to become a pharmaceutical product with a marketing authorization, it is imperative for the composition according to the invention to meet these criteria. In order to verify this point and to determine the antimicrobial action of the various mixtures of excipients according to the invention, a test protocol, known as the PET (Preservative Efficacy Test), exists. The PET comprises artificially inoculating the compositions with a known number of microorganisms, and then determining the decrease in the latter in the compositions tested, at given times. The protocol of this test is set up in order to abide by the recommendations of the European and U.S. pharmacopoeias. […] The mixture of excipients as preservatives, described herein, should therefore meet the criteria of these pharmacopoeias in the PET. This test comprises artificially contaminating aliquots of formulation by means of a calibrated inoculum of specific microorganisms and incubating the same at precise temperatures. Samples are taken from the contaminated aliquots at given time intervals in order to count the microorganisms. Bacteria: • Pseudomonas aeruginosa, reference ATCC 9027; NCIMB 8626; CIP 82.118. • Staphylococcus aureus, reference ATCC 6538; NCTC 10788; NCIMB 9518; CIP 4.83. Bacteria: • Escherichia coli, reference ATCC 8739. • Pseudomonas aeruginosa, reference ATCC 9027. • Staphylococcus aureus, reference ATCC 6538.

[2] = system: Aspergillus niger, reference ATCC 16404; experiment: Preservative Efficacy Test (PET), Aspergillus niger; type: cell-based; parameters: key to Moulds, Aspergillus Niger: −: No European pharmacopoeia criterion or USP criterion is met; +: for the coli: the USP criteria are met; ++: the European pharmacopoeia criteria A are met; conditions: additive in standard emulsion at its given % (EDTA 0.15, citric acid 2, sodium ascorbate 2, tocopherol 0.05, BHT 1, propyl gallate 0.1, ascorbyl palmitate 1)
From the text: (§2) A particular problem that must be solved by the invention is that of effectively protecting a pharmaceutical topical composition while at the same time meeting the criteria required by the European and U.S. pharmacopoeias. This is because, since the purpose of the pharmaceutical composition is to become a pharmaceutical product with a marketing authorization, it is imperative for the composition according to the invention to meet these criteria. In order to verify this point and to determine the antimicrobial action of the various mixtures of excipients according to the invention, a test protocol, known as the PET (Preservative Efficacy Test), exists. The PET comprises artificially inoculating the compositions with a known number of microorganisms, and then determining the decrease in the latter in the compositions tested, at given times. The protocol of this test is set up in order to abide by the recommendations of the European and U.S. pharmacopoeias. […] The mixture of excipients as preservatives, described herein, should therefore meet the criteria of these pharmacopoeias in the PET. This test comprises artificially contaminating aliquots of formulation by means of a calibrated inoculum of specific microorganisms and incubating the same at precise temperatures. Samples are taken from the contaminated aliquots at given time intervals in order to count the microorganisms. Fungi: • Candida albicans, reference ATCC 10231; NCPF 3179; IP 48.72. • Aspergillus niger, reference ATCC 16404; IMI 149007; IP 1431.83. Fungi: • Candida albicans, reference ATCC 10231. • Aspergillus niger, reference ATCC 16404.

[3] = system: Bacteria and fungi (Escherichia coli, Pseudomonas aeruginosa, Staphylococcus aureus, Candida albicans, Aspergillus niger); experiment: PET, overall compliance with European and U.S. pharmacopoeia criteria; type: cell-based
From the text: A particular problem that must be solved by the invention is that of effectively protecting a pharmaceutical topical composition while at the same time meeting the criteria required by the European and U.S. pharmacopoeias. This is because, since the purpose of the pharmaceutical composition is to become a pharmaceutical product with a marketing authorization, it is imperative for the composition according to the invention to meet these criteria. In order to verify this point and to determine the antimicrobial action of the various mixtures of excipients according to the invention, a test protocol, known as the PET (Preservative Efficacy Test), exists. The PET comprises artificially inoculating the compositions with a known number of microorganisms, and then determining the decrease in the latter in the compositions tested, at given times. The protocol of this test is set up in order to abide by the recommendations of the European and U.S. pharmacopoeias. The test and also the recommendations of the European and U.S. pharmacopoeias are described in Example 1 to follow. The mixture of excipients as preservatives, described herein, should therefore meet the criteria of these pharmacopoeias in the PET.
This test comprises artificially contaminating aliquots of formulation by means of a calibrated inoculum of specific microorganisms and incubating the same at precise temperatures. Samples are taken from the contaminated aliquots at given time intervals in order to count the microorganisms.
It also makes it obligatory to study the reductions in population of the microorganisms introduced into the formulation according to two acceptability criteria.
Since the A criteria are the most strict, it are […] generally required that they be met.
In justified cases, when the A criteria cannot be complied with, for example owing to an increase in the risk of adverse reactions, the B criteria, which are less drastic, apply.
NI (Non-Increase) signifies that there must not be an increase in the number of microorganisms.
It imposes logarithmic reductions in the population of microorganisms which are different than that of the European pharmacopoeia.

[4] = system: Candida albicans, reference ATCC 10231; experiment: Preservative Efficacy Test (PET), Candida albicans; type: cell-based; parameters: key to Yeast, Candida albicans: −: No European pharmacopoeia criterion or USP criterion is met; +: for the coli: the USP criteria are met; ++: the European pharmacopoeia criteria A are met; conditions: additive in standard emulsion
From the text: as §2

[5] = system: Pseudomonas aeruginosa, reference ATCC 9027; experiment: Preservative Efficacy Test (PET), Pseudomonas aeruginosa; type: cell-based; parameters: key to Gram− bacterium, Pseudomonas aeruginosa: −: No European pharmacopoeia criterion or USP criterion is met; +: for the coli: the USP criteria are met; ++: the European pharmacopoeia criteria A are met; conditions: additive in standard emulsion
From the text: as §1

[6] = system: Escherichia coli, reference ATCC 8739; experiment: Preservative Efficacy Test (PET), Escherichia coli; type: cell-based; parameters: key to Gram− bacterium, Esoherichia coli: −: No European pharmacopoeia criterion or USP criterion is met; +: for the coli: the USP criteria are met; ++: the European pharmacopoeia criteria A are met; conditions: additive in standard emulsion
From the text: as §1, with “•” for “• Pseudomonas aeruginosa, reference ATCC 9027; NCIMB 8626; CIP 82.118. • Staphylococcus aureus, reference ATCC 6538; NCTC 10788; NCIMB 9518; CIP 4.83. Bacteria: •”

[7] = pH of the emulsion containing the additive; type: physicochemical; conditions: standard emulsion with 2% citric acid
microorganisms = conditions: J. J. Kabara; cited from earlier work
Aspergillus niger = conditions: cited from earlier work
Candida albicans = conditions: cited from earlier work

With `O=C(O)CC(O)(CC(=O)O)C(=O)O` [Citric acid] the “Gram+ bacterium, Staphylococcus aureus” value [1] was “++”, the “Moulds, Aspergillus Niger” value [2] was “−” and the “Efficacy on the microorganisms as a whole / spectrum of efficacy” value ([3]; additive in standard emulsion) was “bactericidal”. For the same compound, the “Action on Candida albicans” value [4] was “inhibits”, the “Yeast, Candida albicans” value [4] was “++” and the “Gram− bacterium, Pseudomonas aeruginosa” value [5] was “++”. For the same compound, the “Gram− bacterium, Esoherichia coli” value [6] was “+” and the pH [7] was 2.04.
For `CCO` [ethanol], the “Ethanol concentration in the aqueous mixture from which the bactericidal action meets European pharmacopoeia criteria A and the USP criteria” value ([3]; ethanol/water, bacteria) is given as ≥ 15%, the “Ethanol concentration at which the fungicidal action meets the requirements for all the pharmacopoeias” value ([3]; ethanol/water, fungi) is given as 25% and the “Ethanol concentration starting from which proliferation of microorganisms can be prevented” value (microorganisms) is given as ≥ 25 % (v/v).
For `CCCOC(=O)c1ccc(O)cc1` [propylparaben], the “Concentration that makes it possible to inhibit Aspergillus niger” value (Aspergillus niger) is listed as 250 ppm and the “Concentration that makes it possible to inhibit Candida albicans” value (Candida albicans) is listed as 250 ppm.
